Test results published in patent USRE50663E1, “Heterocycle derivatives as pesticides” (Bayer Aktiengesellschaft, priority 2017, dated 2025).

What was measured:
[1] = logP by HPLC on reversed-phase column (C18), acidic range; format: physicochemical; conditions: reversed-phase HPLC column (C18), formic acid in water/acetonitrile
Procedure: The logP values were determined according to EEC Directive 79/831 Annex V.A8 by HPLC (high-performance liquid chromatography) on a reversed-phase column (C18) using the following methods:
Calibration was carried out using a homologous series of straight-chain alkan-2-ones (having 3 to 16 carbon atoms) with known logP values. The values between successive alkanones are determined by linear regression.

[2] = test system: adult cat fleas (Ctenocephalides felis); experiment: Ctenocephalides felis in vitro contact test with adult cat fleas; format: in vivo; conditions: application rate 5 μg/cm^2 (=500 g/ha), after 48 h, dead or moribund fleas
Procedure: For the coating of the test tubes, 9 mg of active compound are first dissolved in 1 ml of acetone p.a. and then diluted to the desired concentration with acetone p.a. 250 μl of the solution are distributed homogeneously on the inner walls and the base of a 25 ml glass tube by turning and rocking on an orbital shaker (rocking rotation at 30 rpm for 2 h). With 900 ppm of active compound solution and internal surface area 44.7 cm^2, given homogeneous distribution, an area-based dose of 5 μg/cm^2 is achieved.
After the solvent has evaporated off, the tubes are populated with 5-10 adult cat fleas (Ctenocephalides felis), sealed with a perforated plastic lid and incubated in a horizontal position at room temperature and ambient humidity. After 48 h, efficacy is determined. To this end, the tubes are stood upright and the fleas are knocked to the base of the tube. Fleas which remain motionless at the base or move in an uncoordinated manner are considered to be dead or moribund.
100% efficacy means that all the fleas were dead or moribund. 0% efficacy means that no fleas were harmed.

[3] = test system: adult cat fleas (Ctenocephalides felis); experiment: Ctenocephalides felis oral test; format: in vivo; conditions: 48 h, 100 ppm in citrated cattle blood, after 2 days, read-out: efficacy (kill)
Procedure, shortened: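 Test compound in DMSO, diluted in citrated cattle blood to the test concentration and offered to ~20 unfed adults through a parafilm membrane. Kill % scored after 2 days (100% = all fleas dead, 0% = none).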

[4] = test system: southern root-knot nematode (Meloidogyne incognita); experiment: Meloidogyne incognita test; format: in vivo; conditions: 20 ppm, after 14 days, lettuce
Procedure: Solvent: 125.0 parts by weight of acetone
To produce a suitable active compound formulation, 1 part by weight of active compound is mixed with the stated amount of solvent and the concentrate is diluted to the desired concentration with water.
Vessels are filled with sand, active compound solution, an egg/larvae suspension of the southern root-knot nematode (Meloidogyne incognita) and lettuce seeds. The lettuce seeds germinate and the plants develop. The galls develop on the roots.
After 14 days, the nematicidal efficacy in % is determined by the formation of galls. 100% means that no galls were found; 0% means that the number of galls on the treated plants corresponds to the untreated control.

[5] = test system: green peach aphids (Myzus persicae); experiment: Myzus persicae oral test; format: in vivo; conditions: 120 h, 4 ppm, after 5 days, read-out: efficacy
Procedure: Solvent: 100 parts by weight of acetone
To produce a suitable active compound formulation, 1 part by weight of active compound is dissolved with the stated parts by weight of solvent and made up to the desired concentration with water.
50 μl of the active compound formulation are transferred into microtitre plates and made up to a final volume of 200 μl with 150 μl of IPL41 insect medium (33%+15% sugar). Subsequently, the plates are sealed with parafilm, which a mixed population of green peach aphids (Myzus persicae) within a second microtitre plate is able to puncture and imbibe the solution.
After 5 days, the efficacy in % is determined. 100% means that all the aphids have been killed; 0% means that no aphids have been killed.

[6] = test system: larvae of the mustard beetle (Phaedon cochleariae); experiment: Comparative Phaedon cochleariae spray test (PHAECO); format: in vivo; conditions: 168 h, 7 dat, read-out: % efficacy
Procedure: (§1) Solvent: 14 parts by weight of dimethylformamide
(§2) Emulsifier: alkylaryl polyglycol ether
(§3) To produce a suitable active compound formulation, 1 part by weight of active compound is dissolved with the specified parts by weight of solvent and made up to the desired concentration with water containing an emulsifier concentration of 1000 ppm. To produce further test concentrations, the formulation is diluted with emulsifier-containing water. If the addition of ammonium salts or/and penetrants is required, these are each added in a concentration of 1000 ppm to the formulation solution.
Cabbage leaves (Brassica oleracea) are sprayed with an active ingredient formulation of the desired concentration and populated with larvae of the mustard beetle (Phaedon cochleariae).
After the desired time, the kill in % is determined. 100% means that all the beetle larvae have been killed; 0% means that no beetle larvae have been killed.

[7] = test system: caterpillars of the armyworm (Spodoptera frugiperda); experiment: Comparative Spodoptera frugiperda spray test (SPODFR); format: in vivo; conditions: 168 h, 7 dat, read-out: % efficacy
Procedure: as §1, §2, §3
Cotton leaves (Gossypium hirsutum) are sprayed with an active ingredient formulation of the desired concentration and populated with caterpillars of the armyworm (Spodoptera frugiperda).
(§4) After the desired time, the kill in % is determined. 100% means that all caterpillars have been killed; 0% means that none of the caterpillars have been killed.

[8] = test system: caterpillars of the armyworm (Spodoptera frugiperda); experiment: Comparative Spodoptera frugiperda drench test (SPODFR D); format: in vivo; conditions: soil, 336 h, 14 dat, read-out: % efficacy
Procedure: (§5) Solvent: 7 parts by weight of dimethylformamide
(§6) Emulsifier: 2 parts by weight of alkylaryl polyglycol ether
(§7) To produce a suitable active ingredient formulation, 1 part by weight of active ingredient is mixed with the specified amounts of solvent and emulsifier, and the concentrate is diluted with water to the desired concentration, it being necessary to take into account the volume of soil which is drenched. It should be ensured that a concentration of 40 ppm of emulsifier in the soil is not exceeded. To produce further test concentrations, water is used for dilution.
Maize plants (Zea mays) in pots of soil are watered with an active ingredient formulation of the desired concentration and infected with caterpillars of the armyworm (Spodoptera frugiperda).
as §4

[9] = test system: green peach aphid (Myzus persicae); experiment: Comparative Myzus persicae drench test (MYZUPE D); format: in vivo; conditions: soil, 240 h, 10 dat, read-out: % efficacy
Procedure: as §5, §6, §7
Savoy cabbage (Brassica oleracea) in pots with soil and infested by all stages of the green peach aphid (Myzus persicae) is watered with an active ingredient formulation of the desired concentration.
After the desired period of time, the efficacy in % is determined. 100% means that all the aphids have been killed; 0% means that no aphids have been killed.

Work on `CCS(=O)(=O)c1c(-c2nc3cc(C(F)(F)F)cnc3n2C)nc2cc(C3(C#N)CC3)ccn12` [Example I-11, 1-{3-(Ethylsulfonyl)-2-[3-methyl-6-(trifluoromethyl)-3H-imidazo[4,5-b]pyridin-2-yl]imidazo[1,2-a]pyridin-7-yl}cyclopropanecarbonitrile] yielded a chromatographic logP [1] of 2.88, an efficacy [2] of 100% and a pest or weed control at 100 ppm [3] of 100%. The “nematicidal efficacy (formation of galls)” value [4] was 100%, the pest or weed control at 4 ppm [5] was 90% and the Emax at 0.8 ppm ([6]; 0.8 ppm) was 60%. The Emax at 4 ppm ([6]; 4 ppm) was 100%, the Emax at 0.16 ppm [7] was 100% and the Emax at 0.16 ppm [8] was 100%. For the same molecule, the Emax at 0.8 ppm [9] was 95%.
